Experimental data taken from patent US11993599B2, “Therapeutic compounds” (Genentech, Inc., priority 2021, dated 2024).

Tests used:
Assay type in all cases: cell-based
BRG1 = biological target: T1, BRG1 (Homo sapiens, UniProt P51532); experiment: Immunofluorescence assay for BRG1 degradation in SW1573 cells; settings: 20 hours incubation; for DC50: immunofluorescence mean nuclear signal, read-out: BRG1 IF Degradation IC50; for Dmax: SW1573, 20 h, normalized to a known degrader control, read-out: BRG1 IF Degradation Sinf (%)
T1 construct: either BRM primary antibody (Cell signaling Cat #11966) or BRG primary antibody (Abcam, ab 110641); endogenous in cells; host or cells: SW1573
T1 sequence (P51532 whole entry): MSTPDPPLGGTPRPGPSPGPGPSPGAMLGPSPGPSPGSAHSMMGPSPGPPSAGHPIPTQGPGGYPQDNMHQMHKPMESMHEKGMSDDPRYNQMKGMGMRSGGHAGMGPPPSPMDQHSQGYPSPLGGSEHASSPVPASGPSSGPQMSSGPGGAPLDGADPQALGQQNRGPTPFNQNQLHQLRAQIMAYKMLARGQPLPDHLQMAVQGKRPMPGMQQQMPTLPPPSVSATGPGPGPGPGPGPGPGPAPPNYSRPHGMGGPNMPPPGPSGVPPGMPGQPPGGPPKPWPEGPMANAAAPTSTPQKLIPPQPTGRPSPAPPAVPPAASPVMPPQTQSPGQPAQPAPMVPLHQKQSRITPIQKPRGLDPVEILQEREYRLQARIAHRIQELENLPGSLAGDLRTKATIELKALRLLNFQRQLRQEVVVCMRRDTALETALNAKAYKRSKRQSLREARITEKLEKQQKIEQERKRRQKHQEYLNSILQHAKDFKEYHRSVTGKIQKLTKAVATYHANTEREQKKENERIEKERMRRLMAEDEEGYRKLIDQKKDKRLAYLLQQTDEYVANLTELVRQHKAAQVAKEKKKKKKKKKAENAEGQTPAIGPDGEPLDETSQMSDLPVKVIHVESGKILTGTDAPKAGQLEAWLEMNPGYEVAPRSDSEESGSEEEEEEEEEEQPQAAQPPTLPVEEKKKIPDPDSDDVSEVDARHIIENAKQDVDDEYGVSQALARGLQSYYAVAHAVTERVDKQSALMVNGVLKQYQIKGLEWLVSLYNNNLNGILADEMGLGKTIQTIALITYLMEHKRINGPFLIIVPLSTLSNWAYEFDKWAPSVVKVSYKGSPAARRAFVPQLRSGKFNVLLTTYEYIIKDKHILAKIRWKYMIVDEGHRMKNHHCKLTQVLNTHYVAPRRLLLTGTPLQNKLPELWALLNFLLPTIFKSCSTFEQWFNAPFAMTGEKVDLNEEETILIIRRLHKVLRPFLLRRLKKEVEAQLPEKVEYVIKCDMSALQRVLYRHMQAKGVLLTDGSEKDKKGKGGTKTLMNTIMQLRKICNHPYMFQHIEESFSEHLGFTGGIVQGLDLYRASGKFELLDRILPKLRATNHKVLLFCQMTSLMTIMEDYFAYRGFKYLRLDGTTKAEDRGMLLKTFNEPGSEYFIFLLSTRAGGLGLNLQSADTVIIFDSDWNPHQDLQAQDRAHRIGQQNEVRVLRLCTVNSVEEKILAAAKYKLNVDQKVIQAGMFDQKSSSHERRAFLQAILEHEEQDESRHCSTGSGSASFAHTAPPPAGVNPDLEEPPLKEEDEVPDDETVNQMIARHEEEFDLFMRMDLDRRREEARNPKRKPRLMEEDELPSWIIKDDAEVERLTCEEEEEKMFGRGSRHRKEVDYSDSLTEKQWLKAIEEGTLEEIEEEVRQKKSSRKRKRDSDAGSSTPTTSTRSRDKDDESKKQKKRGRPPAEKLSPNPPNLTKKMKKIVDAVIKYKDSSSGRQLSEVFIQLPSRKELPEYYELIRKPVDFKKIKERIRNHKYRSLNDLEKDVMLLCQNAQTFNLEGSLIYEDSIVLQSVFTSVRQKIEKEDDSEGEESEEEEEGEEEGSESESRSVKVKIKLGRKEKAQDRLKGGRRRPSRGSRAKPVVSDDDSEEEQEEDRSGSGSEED
Procedure, shortened: (§1)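 Imaging-based readout in SW1573: 20 h dosing, formaldehyde fixation, antibody staining for either remodeler, nuclear intensity per cell quantified. Values normalized to control degrader; floating-maximum fit.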

BRM [1] = biological target: T2, BRM (Homo sapiens, UniProt P51531); experiment: Immunofluorescence assay for BRM degradation in SW1573 cells; parameters: treated overnight at 4° C. with either BRM primary antibody (Cell signaling Cat #11966) or BRG primary antibody; endogenous in cells; host or cells: SW1573; settings: 20 hours incubation; for DC50: immunofluorescence mean nuclear signal, read-out: BRM IF Degradation IC50; for BRM IF Degradation Sinf (%): normalized to a known degrader control
T2 sequence (P51531 whole entry): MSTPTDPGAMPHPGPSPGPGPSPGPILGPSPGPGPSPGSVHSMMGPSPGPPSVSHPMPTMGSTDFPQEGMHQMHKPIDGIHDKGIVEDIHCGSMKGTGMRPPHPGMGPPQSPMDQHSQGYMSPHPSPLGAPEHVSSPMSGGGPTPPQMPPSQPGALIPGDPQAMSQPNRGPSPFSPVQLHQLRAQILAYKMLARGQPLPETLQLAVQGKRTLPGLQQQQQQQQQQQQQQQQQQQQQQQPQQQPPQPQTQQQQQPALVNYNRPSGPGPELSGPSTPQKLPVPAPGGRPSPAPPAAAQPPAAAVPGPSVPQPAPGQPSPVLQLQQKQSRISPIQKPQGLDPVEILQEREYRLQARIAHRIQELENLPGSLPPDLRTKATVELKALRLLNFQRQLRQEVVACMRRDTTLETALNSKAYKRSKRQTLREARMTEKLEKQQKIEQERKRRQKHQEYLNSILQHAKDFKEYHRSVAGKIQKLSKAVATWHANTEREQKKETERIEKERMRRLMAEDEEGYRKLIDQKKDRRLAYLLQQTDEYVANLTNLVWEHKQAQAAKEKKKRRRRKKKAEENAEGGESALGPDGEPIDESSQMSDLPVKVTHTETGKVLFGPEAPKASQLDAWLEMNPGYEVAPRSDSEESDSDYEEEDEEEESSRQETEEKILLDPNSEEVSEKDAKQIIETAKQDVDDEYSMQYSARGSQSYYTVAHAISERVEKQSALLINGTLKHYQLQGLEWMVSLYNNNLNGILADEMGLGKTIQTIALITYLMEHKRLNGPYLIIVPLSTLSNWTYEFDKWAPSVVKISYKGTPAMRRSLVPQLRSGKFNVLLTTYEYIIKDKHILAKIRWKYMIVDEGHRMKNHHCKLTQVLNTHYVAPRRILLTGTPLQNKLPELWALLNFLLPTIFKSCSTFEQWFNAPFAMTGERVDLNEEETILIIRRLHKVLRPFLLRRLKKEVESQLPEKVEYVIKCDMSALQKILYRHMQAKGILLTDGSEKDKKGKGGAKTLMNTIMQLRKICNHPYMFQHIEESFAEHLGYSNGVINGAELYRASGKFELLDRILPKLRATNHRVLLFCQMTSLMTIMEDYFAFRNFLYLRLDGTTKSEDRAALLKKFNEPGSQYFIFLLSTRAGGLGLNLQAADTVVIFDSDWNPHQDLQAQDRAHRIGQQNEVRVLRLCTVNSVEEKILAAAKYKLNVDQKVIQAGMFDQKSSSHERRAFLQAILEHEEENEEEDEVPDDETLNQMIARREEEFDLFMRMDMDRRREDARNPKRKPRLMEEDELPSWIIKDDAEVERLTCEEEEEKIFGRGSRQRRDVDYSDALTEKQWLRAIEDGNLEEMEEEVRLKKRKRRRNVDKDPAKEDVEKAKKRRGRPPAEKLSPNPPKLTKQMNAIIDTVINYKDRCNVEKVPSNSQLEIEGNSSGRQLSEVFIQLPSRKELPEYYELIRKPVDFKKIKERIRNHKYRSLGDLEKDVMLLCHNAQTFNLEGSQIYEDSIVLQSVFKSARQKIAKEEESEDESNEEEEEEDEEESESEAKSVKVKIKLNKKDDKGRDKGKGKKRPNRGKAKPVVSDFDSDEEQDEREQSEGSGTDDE
Procedure, shortened: as §1

BRM [2] = biological target: T2, BRM; experiment: HiBIT nanoluciferase complementation screen for BRM degraders; settings: 18 hours, BRM-HiBIT KI Hela cells, luminescence normalized: DMSO only = 0%, no cells = −100%; for Median HiBiT activity 1 μM: compound 1 μM; for Median HiBiT activity 10 μM: compound 10 μM
Excerpt: Example B-1: HiBIT Nanoluciferase Complementation Screen for BRM Degraders
To assess BRM degradation, compounds were screened for their effect of BRM levels using the HiBIT nanoluciferase complementation strategy developed at Promega. In brief, a HELA cell line that was genetically modified via CRISPR/CAS9 was used to fuse the HiBIT sequence at the 3′ end of BRM (BRM-HiBIT KI Hela). BRM protein levels were then detected using the Nano-Glo HiBIT lytic detection reagent (Promega).
The screened compounds were plated into a white 384-well plate at 10 μM and 1 μM in 25 nL DMSO using an Echo dispenser (Labcyte). BRM-HiBIT KI Hela cells were seeded in the compound plate at 5000 cell per well at 25 μl in DMEM growth media (containing 10% FBS, 1% Glutamax (GIBCO cat #31053-028), lx Penicillin-Streptomycin (ROCHE, cat #1107444001), 4.5 g/L D-Glucose, and no phenol red). After incubation with compounds for 18 hours at 37° C., cell viability was assessed by the addition of 5 μl Cell Titer-Fluor reagent (Promega). After 30 s of mixing on an orbital shaker, and 30 minutes incubation at 37° C., fluorescence was measured with an INFINITE F500 (Tecan) (380-400 nm excitation, 505 nm emission). Next, to assess BRM HiBIT levels, 30 μl of Nano-Glo HiBIT lytic detection reagent (Promega) containing 1:50 Nano-Glo HiBIT lytic substrate and 1:100 LgBIT protein per ml of lytic buffer was added. After shaking on an orbital shaker at 350 rpm for 10 minutes, luminescence was measured on the INFINITE F500 (Tecan). To assess compound effects, luminescence signal was normalized with the mean of wells treated with DMSO only set to 0% and the mean of wells containing no cells set to −100%. Note that, in Table 4, the “Compound Number” corresponds to that used in Table 1.

Row | SMILES | DC50 (BRG1) [nM] | Dmax (BRG1) [%] | DC50 (BRM [1]) [nM] | BRM IF Degradation Sinf (%) (BRM [1]) | Median HiBiT activity 1 μM (BRM [2]) [%] | Median HiBiT activity 10 μM (BRM [2]) [%]
1 | Nc1nnc(-c2ccccc2O)cc1N1CC2CCC(C1)N2c1ccnc(C#CC2CCN2)c1 (centres unmarked) [Compound 17, 2-(6-amino-5-(8-(2-(azetidin-2-ylethynyl)pyridin-4-yl)-3,8-diazabicyclo[3.2.1]octan-3-yl)pyridazin-3-yl)phenol] | 10 to 100 | 0 to 30 | 10 to 100 | E (E indicates −30%-−70%) | −37.0864 | −51.9890
2 | Nc1nnc(-c2ccccc2O)cc1N1CC2CCC(C1)N2c1ccnc(C#CCCO)c1 [Compound 26, 2-(6-amino-5-(8-(2-(4-hydroxybut-1-yn-1-yl)pyridin-4-yl)-3,8-diazabicyclo[3.2.1]octan-3-yl)pyridazin-3-yl)phenol] | > 100 | – | > 100 | – | −25.9348 | −28.4202
3 | Nc1nnc(-c2ccccc2O)cc1N1CC2CCC(C1)N2c1ccnc(C#CC2CCNC2)c1 (centres unmarked) [Compound 25, 2-(6-amino-5-(8-(2-(pyrrolidin-3-ylethynyl)pyridin-4-yl)-3,8-diazabicyclo[3.2.1]octan-3-yl)pyridazin-3-yl)phenol] | > 100 | – | > 100 | E (E indicates −30%-−70%) | −26.7344 | −55.1975
4 | Nc1nnc(-c2ccccc2O)cc1N1CC2CCC(C1)N2c1ccnc(C#CCC2CCCCN2)c1 (centres unmarked) [Compound 13, 2-(6-amino-5-(8-(2-(3-(piperidin-2-yl)prop-1-yn-1-yl)pyridin-4-yl)-3,8-diazabicyclo[3.2.1]octan-3-yl)pyridazin-3-yl)phenol] | 10 to 100 | 0 to 30 | 10 to 100 | E (E indicates −30%-−70%) | −44.9864 | −32.1865
5 | Nc1nnc(-c2ccccc2O)cc1N1CC2CCC(C1)N2c1ccnc(C#CC2CCOCC2)c1 [Compound 22, 2-(6-amino-5-(8-(2-((tetrahydro-2H-pyran-4-yl)ethynyl)pyridin-4-yl)-3,8-diazabicyclo[3.2.1]octan-3-yl)pyridazin-3-yl)phenol] | > 100 | 0 to 30 | > 100 | – | −30.6701 | −33.6373
6 | NCCCCCCc1cc(N2C3CCC2CN(c2cc(-c4ccccc4O)nnc2N)C3)ccn1 [Compound 20, 2-(6-amino-5-(8-(2-(6-aminohexyl)pyridin-4-yl)-3,8-diazabicyclo[3.2.1]octan-3-yl)pyridazin-3-yl)phenol] | 10 to 100 | 71 to 120 | 10 to 100 | F (F indicates −71%-−120%) | −33.3403 | −8.91
7 | C[C@@H](N)C#Cc1cc(N2C3CCC2CN(c2cc(-c4ccccc4O)nnc2N)C3)ccn1 [Compound 23, 2-(6-amino-5-(8-(2-((R)-3-aminobut-1-yn-1-yl)pyridin-4-yl)-3,8-diazabicyclo[3.2.1]octan-3-yl)pyridazin-3-yl)phenol] | 10 to 100 | 30 to 70 | < 10 | E (E indicates −30%-−70%) | −29.3818 | −58.9213
8 | Nc1nnc(-c2ccccc2O)cc1N1CC2CCC(C1)N2c1ccnc(C#CC2CNC2)c1 [Compound 6, 2-(6-amino-5-(8-(2-(azetidin-3-ylethynyl)pyridin-4-yl)-3,8-diazabicyclo[3.2.1]octan-3-yl)pyridazin-3-yl)phenol] | > 100 | 0 to 30 | 10 to 100 | E (E indicates −30%-−70%) | −61.1458 | −67.7912
9 | NCCCc1cc(N2C3CCC2CN(c2cc(-c4ccccc4O)nnc2N)C3)ccn1 [Compound 33, 2-(6-amino-5-(8-(2-(3-aminopropyl)pyridin-4-yl)-3,8-diazabicyclo[3.2.1]octan-3-yl)pyridazin-3-yl)phenol] | > 100 | 30 to 70 | > 100 | E (E indicates −30%-−70%) | −14.8996 | −55.0132
10 | NCCC#Cc1cc(N2C3CCC2CN(c2cc(-c4ccccc4O)nnc2N)C3)ccn1 [Compound 30, 2-(6-amino-5-(8-(2-(4-aminobut-1-yn-1-yl)pyridin-4-yl)-3,8-diazabicyclo[3.2.1]octan-3-yl)pyridazin-3-yl)phenol] | > 100 | 0 to 30 | > 100 | E (E indicates −30%-−70%) | −18.8155 | −47.5549
11 | Nc1nnc(-c2ccccc2O)cc1N1CC2CCC(C1)N2c1ccnc(C#CCN2CCS(=O)(=O)CC2)c1 [Compound 18, 4-(3-(4-(3-(3-amino-6-(2-hydroxyphenyl)pyridazin-4-yl)-3,8-diazabicyclo[3.2.1]octan-8-yl)pyridin-2-yl)prop-2-yn-1-yl)thiomorpholine1,1-dioxide] | > 100 | – | > 100 | E (E indicates −30%-−70%) | −37.0807 | −56.4043
12 | Nc1nnc(-c2ccccc2O)cc1N1CC2CCC(C1)N2c1ccnc(C#CCOCCO)c1 [Compound 4, 2-(6-amino-5-(8-(2-(3-(2-hydroxyethoxy)prop-1-yn-1-yl)pyridin-4-yl)-3,8-diazabicyclo[3.2.1]octan-3-yl)pyridazin-3-yl)phenol] | 10 to 100 | 0 to 30 | 10 to 100 | E (E indicates −30%-−70%) | −65.5436 | −51.5968
13 | NCC#Cc1cc(N2C3CCC2CN(c2cc(-c4ccccc4O)nnc2N)C3)ccn1 [Compound 24, 2-(6-amino-5-(8-(2-(3-aminoprop-1-yn-1-yl)pyridin-4-yl)-3,8-diazabicyclo[3.2.1]octan-3-yl)pyridazin-3-yl)phenol] | > 100 | – | 10 to 100 | E (E indicates −30%-−70%) | −27.1137 | −43.5174
14 | Nc1nnc(-c2ccccc2O)cc1N1CC2CCC(C1)N2c1ccnc(C#CCN2CCNCC2)c1 [Compound 28, 2-(6-amino-5-(8-(2-(3-(piperazin-1-yl)prop-1-yn-1-yl)pyridin-4-yl)-3,8-diazabicyclo[3.2.1]octan-3-yl)pyridazin-3-yl)phenol] | > 100 | – | > 100 | E (E indicates −30%-−70%) | −23.3156 | −44.9026
15 | Nc1nnc(-c2ccccc2O)cc1N1CC2CCC(C1)N2c1ccnc(C#CCC2CCNC2)c1 (centres unmarked) [Compound 34, 2-(6-amino-5-(8-(2-(3-(pyrrolidin-3-yl)prop-1-yn-1-yl)pyridin-4-yl)-3,8-diazabicyclo[3.2.1]octan-3-yl)pyridazin-3-yl)phenol] | – | – | > 100 | – | −7.217 | −29.4355
16 | CC1COCCN1CC#Cc1cc(N2C3CCC2CN(c2cc(-c4ccccc4O)nnc2N)C3)ccn1 (centres unmarked) [Compound 57, 2-[6-amino-5-[8-[2-[3-(3-methylmorpholin-4-yl)prop-1-ynyl]-4-pyridyl]-3,8-diazabicyclo[3.2.1]octan-3-yl]pyridazin-3-yl]phenol] | > 100 | – | 10 to 100 | E (E indicates −30%-−70%) | – | –
